Assay results taken from PMC7333355, “Functional and Regulatory Characterization of Three AMTs in Maize Roots” (Frontiers in Plant Science, 2020).

Key:
[1] = molecular target: T1, AtAMT1;3 (Arabidopsis thaliana, UniProt Q9SQH9); conditions: 1 mM ammonium chloride
T1 construct: gene AMT1-3

[2] = molecular target: T2, ZmAMT1.3 (Zea mays, UniProt B4F978); experiment: two-electrode voltage clamp, Xenopus oocytes, inhibition of ammonium-induced current; format: cell-based; conditions: read-out: % inhibition at 10 mM
T2 construct: full-length cDNA from maize root RNA in pCI vector, expressed in Xenopus laevis oocytes; no tag stated
T2 sequence (B4F978 1-488): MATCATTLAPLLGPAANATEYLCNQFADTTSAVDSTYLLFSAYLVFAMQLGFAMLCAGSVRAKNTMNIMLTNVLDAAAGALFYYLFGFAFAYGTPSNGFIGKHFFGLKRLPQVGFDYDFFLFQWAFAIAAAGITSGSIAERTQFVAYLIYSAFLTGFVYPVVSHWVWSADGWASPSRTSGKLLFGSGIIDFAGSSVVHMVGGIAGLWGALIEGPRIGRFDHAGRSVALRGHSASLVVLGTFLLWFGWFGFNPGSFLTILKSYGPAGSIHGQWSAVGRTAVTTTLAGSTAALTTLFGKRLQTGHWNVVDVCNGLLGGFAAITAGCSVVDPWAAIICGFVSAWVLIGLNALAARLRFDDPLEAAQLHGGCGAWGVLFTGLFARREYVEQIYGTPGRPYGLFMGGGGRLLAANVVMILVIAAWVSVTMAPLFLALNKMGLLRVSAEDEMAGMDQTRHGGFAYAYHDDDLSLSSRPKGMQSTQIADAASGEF

[3] = molecular target: T3, ZmAMT1.1a (Zea mays, UniProt B4FRK2); experiment: as above; format: cell-based; conditions: read-out: % inhibition at 10 mM
T3 construct: full-length cDNA from maize root RNA in pCI vector, expressed in Xenopus laevis oocytes; no tag stated
T3 sequence (B4FRK2 1-498): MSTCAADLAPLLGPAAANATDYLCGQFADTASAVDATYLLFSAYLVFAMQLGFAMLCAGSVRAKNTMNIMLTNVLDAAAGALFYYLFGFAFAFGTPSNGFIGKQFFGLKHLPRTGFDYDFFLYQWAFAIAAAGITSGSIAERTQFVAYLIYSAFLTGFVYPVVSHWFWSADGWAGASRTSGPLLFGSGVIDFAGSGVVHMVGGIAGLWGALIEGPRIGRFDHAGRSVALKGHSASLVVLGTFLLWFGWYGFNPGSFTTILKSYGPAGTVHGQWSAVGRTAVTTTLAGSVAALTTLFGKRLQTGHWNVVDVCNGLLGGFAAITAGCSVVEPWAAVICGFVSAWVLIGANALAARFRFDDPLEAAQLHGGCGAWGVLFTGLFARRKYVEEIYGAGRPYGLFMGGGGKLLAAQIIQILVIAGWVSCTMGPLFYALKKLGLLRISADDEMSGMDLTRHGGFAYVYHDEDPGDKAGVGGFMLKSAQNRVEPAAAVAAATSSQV

[4] = molecular target: T4, ZmAMT1.1b (Zea mays, UniProt B4FV06); experiment: as above; format: cell-based; conditions: read-out: % inhibition at 10 mM
T4 construct: full-length cDNA from maize root RNA in pCI vector, expressed in Xenopus laevis oocytes; no tag stated
T4 sequence (B4FV06 1-489): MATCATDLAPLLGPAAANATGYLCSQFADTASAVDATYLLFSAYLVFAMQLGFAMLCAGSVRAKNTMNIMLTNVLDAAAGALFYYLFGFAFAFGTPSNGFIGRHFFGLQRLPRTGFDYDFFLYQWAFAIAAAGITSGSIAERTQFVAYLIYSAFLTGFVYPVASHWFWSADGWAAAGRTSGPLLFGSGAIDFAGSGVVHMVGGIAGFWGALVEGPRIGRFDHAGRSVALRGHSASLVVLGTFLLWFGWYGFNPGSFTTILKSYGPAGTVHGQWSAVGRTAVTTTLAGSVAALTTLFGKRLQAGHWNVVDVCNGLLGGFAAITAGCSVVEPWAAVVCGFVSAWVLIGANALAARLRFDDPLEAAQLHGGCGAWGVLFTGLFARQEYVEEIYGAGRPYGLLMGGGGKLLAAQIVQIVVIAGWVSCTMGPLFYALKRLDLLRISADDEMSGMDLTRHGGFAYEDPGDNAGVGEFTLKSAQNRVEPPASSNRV

[5] = substrate: N; experiment: cells, lysate or membranes; conditions: added as chloride
[6] = substrate: CN; experiment: two-electrode voltage clamp, Xenopus oocytes, Michaelis-Menten fit of induced currents; format: cell-based, Zea mays; conditions: pH 7.4, -140 mV, added as chloride

T1 sequence (Q9SQH9 whole entry): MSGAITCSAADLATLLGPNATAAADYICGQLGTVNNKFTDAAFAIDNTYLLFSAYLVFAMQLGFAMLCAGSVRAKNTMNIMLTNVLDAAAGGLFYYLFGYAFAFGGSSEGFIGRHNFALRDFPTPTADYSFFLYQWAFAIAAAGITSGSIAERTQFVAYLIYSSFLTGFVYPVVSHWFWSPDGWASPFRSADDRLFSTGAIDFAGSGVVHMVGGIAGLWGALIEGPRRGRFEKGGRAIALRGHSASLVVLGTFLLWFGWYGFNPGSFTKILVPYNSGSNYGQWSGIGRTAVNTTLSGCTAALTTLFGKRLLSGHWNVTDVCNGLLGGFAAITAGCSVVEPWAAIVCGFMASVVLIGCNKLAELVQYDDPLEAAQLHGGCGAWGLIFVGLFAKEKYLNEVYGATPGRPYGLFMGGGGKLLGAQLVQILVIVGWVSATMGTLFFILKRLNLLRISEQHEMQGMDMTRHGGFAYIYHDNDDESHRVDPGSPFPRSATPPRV

N [ammonium]
two-electrode voltage clamp, Xenopus oocytes, induced current [1]: Significant ammonium-induced currents were detected in AtAMT1;3-expressing oocytes

NC(=O)CC[C@H](N)C(=O)O [glutamine]
inhibition at 10000 µM [2]: 55.4%
inhibition at 10000 µM [3]: 69.9%
inhibition at 10000 µM [4]: 67.5%

B1: ZmAMT1.1b (Zea mays) (protein)
chain: MATCATDLAPLLGPAAANATGYLCSQFADTASAVDATYLLFSAYLVFAMQLGFAMLCAGSVRAKNTMNIMLTNVLDAAAGALFYYLFGFAFAFGTPSNGFIGRHFFGLQRLPRTGFDYDFFLYQWAFAIAAAGITSGSIAERTQFVAYLIYSAFLTGFVYPVASHWFWSADGWAAAGRTSGPLLFGSGAIDFAGSGVVHMVGGIAGFWGALVEGPRIGRFDHAGRSVALRGHSASLVVLGTFLLWFGWYGFNPGSFTTILKSYGPAGTVHGQWSAVGRTAVTTTLAGSVAALTTLFGKRLQAGHWNVVDVCNGLLGGFAAITAGCSVVEPWAAVVCGFVSAWVLIGANALAARLRFDDPLEAAQLHGGCGAWGVLFTGLFARQEYVEEIYGAGRPYGLLMGGGGKLLAAQIVQIVVIAGWVSCTMGPLFYALKRLDLLRISADDEMSGMDLTRHGGFAYEDPGDNAGVGEFTLKSAQNRVEPPASSNRV
Km ([5]; pH 7.4, -140 mV (potential inferred from Figure 2D range)): 15.6 µM

B2: ZmAMT1.1a (Zea mays) (protein)
chain: MSTCAADLAPLLGPAAANATDYLCGQFADTASAVDATYLLFSAYLVFAMQLGFAMLCAGSVRAKNTMNIMLTNVLDAAAGALFYYLFGFAFAFGTPSNGFIGKQFFGLKHLPRTGFDYDFFLYQWAFAIAAAGITSGSIAERTQFVAYLIYSAFLTGFVYPVVSHWFWSADGWAGASRTSGPLLFGSGVIDFAGSGVVHMVGGIAGLWGALIEGPRIGRFDHAGRSVALKGHSASLVVLGTFLLWFGWYGFNPGSFTTILKSYGPAGTVHGQWSAVGRTAVTTTLAGSVAALTTLFGKRLQTGHWNVVDVCNGLLGGFAAITAGCSVVEPWAAVICGFVSAWVLIGANALAARFRFDDPLEAAQLHGGCGAWGVLFTGLFARRKYVEEIYGAGRPYGLFMGGGGKLLAAQIIQILVIAGWVSCTMGPLFYALKKLGLLRISADDEMSGMDLTRHGGFAYVYHDEDPGDKAGVGGFMLKSAQNRVEPAAAVAAATSSQV
notes: full-length cDNA from maize root RNA in pCI vector, expressed in Xenopus laevis oocytes; no tag stated
Km ([5]; pH 7.4, -140 mV): 9.9 ± 1.9 µM
Km [6]: 1900 ± 400 µM

B3: ZmAMT1.3 (Zea mays) (protein)
chain: MATCATTLAPLLGPAANATEYLCNQFADTTSAVDSTYLLFSAYLVFAMQLGFAMLCAGSVRAKNTMNIMLTNVLDAAAGALFYYLFGFAFAYGTPSNGFIGKHFFGLKRLPQVGFDYDFFLFQWAFAIAAAGITSGSIAERTQFVAYLIYSAFLTGFVYPVVSHWVWSADGWASPSRTSGKLLFGSGIIDFAGSSVVHMVGGIAGLWGALIEGPRIGRFDHAGRSVALRGHSASLVVLGTFLLWFGWFGFNPGSFLTILKSYGPAGSIHGQWSAVGRTAVTTTLAGSTAALTTLFGKRLQTGHWNVVDVCNGLLGGFAAITAGCSVVDPWAAIICGFVSAWVLIGLNALAARLRFDDPLEAAQLHGGCGAWGVLFTGLFARREYVEQIYGTPGRPYGLFMGGGGRLLAANVVMILVIAAWVSVTMAPLFLALNKMGLLRVSAEDEMAGMDQTRHGGFAYAYHDDDLSLSSRPKGMQSTQIADAASGEF
Km ([5]; pH 7.4, -140 mV (potential inferred from Figure 3D range)): 18.6 ± 2.8 µM
